Earlier results on 1 compound are cited in publication PMC12051155 (Molecular Metabolism, 2025).

SMILES strings stand for the structures.

For `CCCCCCCCCCCCCCCC(=O)N[C@@H](CCC(=O)NCCCC[C@H](NC(=O)[C@H](C)NC(=O)[C@H](C)NC(=O)[C@H](CCC(N)=O)NC(=O)CNC(=O)[C@H](CCC(=O)O)NC(=O)[C@H](CC(C)C)NC(=O)[C@H](Cc1ccc(O)cc1)NC(=O)[C@H](CO)NC(=O)[C@H](CO)NC(=O)[C@@H](NC(=O)[C@H](CC(=O)O)NC(=O)[C@H](CO)NC(=O)[C@@H](NC(=O)[C@H](Cc1ccccc1)NC(=O)[C@@H](NC(=O)CNC(=O)[C@H](CCC(=O)O)NC(=O)[C@H](C)NC(=O)[C@@H](N)Cc1cnc[nH]1)[C@@H](C)O)[C@@H](C)O)C(C)C)C(=O)N[C@@H](CCC(=O)O)C(=O)N[C@@H](Cc1ccccc1)C(=O)N[C@H](C(=O)N[C@@H](C)C(=O)N[C@@H](Cc1c[nH]c2ccccc12)C(=O)N[C@@H](CC(C)C)C(=O)N[C@H](C(=O)N[C@@H](CCCNC(=N)N)C(=O)NCC(=O)N[C@@H](CCCNC(=N)N)C(=O)NCC(=O)O)C(C)C)[C@@H](C)CC)C(=O)O` [liraglutide], the half-life in humans is listed as 13 h.
